What was measured:
[1] = system: N18 (mouse neuroblastoma) cells; test: Cell viability assay using MTT, N18; type: cell-based; conditions: 25 μM and 50 μM, 48 h or 96 h, versus control cells (FIG. 6c)
Method: (§1) Cells. B16F10 (mouse melanoma), GL261 (mouse glioma), HOG (human oligodendroglioma), A549 (human lung cancer), and N18 (mouse neuroblastoma) cells were cultured separately in DMEM containing 10% (v/v) fetal bovine serum and 1% (v/v) penicillin-streptomycin (PS) and allowed to grow to 40% confluence in a 96-well plate.
(§2) Curcumin Treatment. Two hours before drug treatment, the medium in each well was replaced with 200 μl Neurobasal medium supplemented with 2% (v/v) B27 and 1% (v/v) PS (Drug-treatment Medium). A stock solution (40 mM) of curcumin was prepared in sterile dimethyl sulfoxide (DMSO) (Example 1). Through serial dilution of each stock solution in Drug-treatment Medium, the following concentrations were obtained: 20 μM and 50 μM (for caspase 3/7 assays) or 25 μM and 50 μM (for MTT assays). […] Additionally, the background absorbance was determined from parallel wells containing only the Drug-treatment Medium plus a particular concentration of the drug (no cells).
(§3) Cell Viability Assay Using MTT (3-(4,5-Dimethylthiazolyl-2)-2,5-Diphenyltetrazolium Bromide). […] Absorbance was measured at 570 nm using a 96-well multi scanner auto-reader with the extraction buffer used as blank. For curcumin samples, the absorbance obtained from the corresponding curcumin plus medium samples was subtracted.

[2] = Permeability of the blood-brain barrier to curcumin (HPLC of brain after tail vein injection); type: in vivo, mouse
Method: A curcumin solution (200 μl of 667 μM curcumin in PBS containing 3% DMSO) was injected through the tail vein of each mouse, the mice were sacrificed after 15 min, 30 min, and 2 hours, and brain regions (forebrain, hippocampus, and hypothalamus) as well as blood were collected for analysis. Each tissue fraction was diluted into 300 μl of water, homogenized, and then diluted with 700 μl of acetonitrile. Proteins and other insoluble substances were separated by centrifugation at 8000 rpm in a table-top Eppendorf microcentrifuge, and the supernatants were transferred to fresh tubes and then evaporated by blowing in nitrogen gas. The blood (100 μl) was diluted with 40 μl EDTA (500 mM) and 160 μl of water. This mixture was diluted with 700 μl of actonitrile, vortexed, protein and debris separated by centrifugation and then the supernatant evaporated under nitrogen. The residues obtained were dissolved in 50 μl of acetonitrile:water (70:30) and 30 μl of this solution injected for HPLC analysis on a C18 reverse-phase column. A standard 0.1 mM solution of curcumin dissolved in acetonitrile:water (70:30) was injected for comparison. The mobile phase was a 30-70% gradient of acetonitrile in water containing 0.1% trifluoroacetic acid (TFA). Curcumin eluted as a closely spaced triplet with the strongest peak eluting at 12.8 min.

[3] = system: human pancreatic carcinoma cell lines; conditions: human pancreatic carcinoma cell lines (Li et al. 2004); cited from earlier work
[4] = system: N18 (mouse neuroblastoma) cells; test: Caspase-3/7 assay in N18 cells; type: cell-based; conditions: 20 μM and 50 μM, 48 h or 96 h (FIG. 2)
Method: (§4) Cells. B16F10 (mouse melanoma), GL261 (mouse glioma), HOG (human oligodendroglioma), A549 (human lung cancer), and […] (mouse neuroblastoma) cells were cultured separately in DMEM containing 10% (v/v) fetal bovine serum and 1% (v/v) penicillin-streptomycin (PS) and allowed to grow to 40% confluence in a 96-well plate. Curcumin Treatment. Two hours before drug treatment, the medium in each well was replaced with 200 μl Neurobasal medium supplemented with 2% (v/v) B27 and 1% (v/v) PS (Drug-treatment Medium). A stock solution (40 mM) of curcumin was prepared in sterile dimethyl sulfoxide (DMSO) (Example 1). Through serial dilution of each stock solution in Drug-treatment Medium, the following concentrations were obtained: 20 μM and 50 μM (for caspase 3/7 assays) or 25 μM and 50 μM (for MTT assays). Drug-treatment Medium in each well was aspirated, and a drug solution of each concentration or carrier-containing medium (control) was added to triplicate wells of cells (50 μl/well). […] Additionally, the background absorbance was determined from parallel wells containing only the Drug-treatment Medium plus a particular concentration of the drug (no cells). […] Fluorescence in each well was measured using the FLx 800 plate reader (Bio-Tek Instruments, Winooski, Vt.) set at 485/20 nm excitation and 528/20 nm emission wavelengths and the sensitivity of 70. […]

[5] = system: ovarian cancer; conditions: orthotopic murine model of ovarian cancer (Lin et al. 2007); cited from earlier work
[6] = system: GL261 (mouse glioma) cells; test: Cell viability assay using MTT, GL261; type: cell-based; conditions: 25 μM and 50 μM, 48 h or 96 h, versus control cells (FIG. 6b)
Method: as §1, §2, §3

[7] = system: B16F10 (mouse melanoma) cells; test: Caspase-3/7 assay in B16F10 cells; type: cell-based; conditions: 20 μM and 50 μM, 48 h or 96 h (FIG. 1)
Method: as §4

curcumin in mouse brain (HPLC trace) ([2]; 15 minutes after tail vein injection of 200 μl of 667 μM curcumin (FIG. 7b)): presence of curcumin | curcumin in mouse brain (HPLC trace) ([2]; 30 minutes after tail vein injection of 200 μl of 667 μM curcumin (FIG. 7c)): presence of curcumin | time by which curcumin was completely metabolized ([2]; mouse brain, after tail vein injection of 200 μl of 667 μM curcumin (FIG. 7d)): ≤ 2 h
SMILES: COc1cc(/C=C/C(=O)CC(=O)/C=C/c2ccc(O)c(OC)c2)ccc1O [curcumin]
cell viability (MTT) [1]: dramatic decrease | apoptosis [3]: induces apoptosis | caspase-3/7 activity [4]: increased | tumor growth [5]: reduces tumor growth | cell viability (MTT) [6]: dramatic decrease | caspase-3/7 activity [7]: increased

From patent US20100197584A1, “USE OF CURCUMIN TO BLOCK BRAIN TUMOR FORMATION IN MICE” (Research Foundations of the City University of- New York, priority 2007, published 2010)
